Results from patent US20130197032A1, “[…] COMPOUNDS FOR THE TREATMENT OF NEUROLOGICAL AND […] DISORDERS” (A. CARLSSON RESEARCH AB, priority 2010, published 2013).

Key:
[1] = tested on: synthesis of dopamine in the striatum of the brain; conditions: Sonesson's thesis 1995; cited from earlier work
dopamine D2/D3 receptors = conditions: read-out: Ki, affinity for dopamine D2/D3 receptors; in vitro binding studies, background; cited from earlier work
human M5 receptor = molecular target: T1, human M5 receptor (Homo sapiens, UniProt P08912); test: R-SAT assay M5; format: cell-based; conditions: Table 3, M5; percent response of reference Carbachol
T1 construct: expressed in transfected cells; host or cells: NIH/3T3 cells, transient transfection, pSI vector

human D3 receptor = molecular target: T2, human D3 receptor (Homo sapiens, UniProt P35462); test: R-SAT assay D3; format: cell-based; conditions: Table 3, D3
T2 construct: expressed in transfected cells

D2 receptors = D2 receptors (Homo sapiens, UniProt P14416); test: Dissociation rate of dopamine from D2 receptors (off-rate assay); format: binding; conditions: data not shown
human D5 receptor = molecular target: T3, human D5 receptor (Homo sapiens, UniProt P21918); test: R-SAT assay D5; format: cell-based; conditions: Table 3, D5; percent response of reference SKF 38393
T3 construct: expressed in transfected cells; host or cells: NIH-3T3 (inferred: R-SAT host; D5 is in neither method list of b200)
T3 sequence (P21918 whole entry): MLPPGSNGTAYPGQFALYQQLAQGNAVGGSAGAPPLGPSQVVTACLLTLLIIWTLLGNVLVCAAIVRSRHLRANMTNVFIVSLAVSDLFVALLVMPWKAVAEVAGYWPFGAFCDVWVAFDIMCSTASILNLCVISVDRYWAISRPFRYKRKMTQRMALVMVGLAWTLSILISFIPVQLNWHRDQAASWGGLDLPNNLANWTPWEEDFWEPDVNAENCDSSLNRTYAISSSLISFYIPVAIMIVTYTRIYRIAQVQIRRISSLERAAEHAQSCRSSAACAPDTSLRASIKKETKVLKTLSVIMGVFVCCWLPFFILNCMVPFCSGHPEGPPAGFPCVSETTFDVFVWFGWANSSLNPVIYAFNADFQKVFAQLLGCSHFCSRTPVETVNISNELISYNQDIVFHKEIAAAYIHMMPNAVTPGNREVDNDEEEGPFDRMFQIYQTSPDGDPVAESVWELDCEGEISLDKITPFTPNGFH

T2 sequence (P35462 whole entry): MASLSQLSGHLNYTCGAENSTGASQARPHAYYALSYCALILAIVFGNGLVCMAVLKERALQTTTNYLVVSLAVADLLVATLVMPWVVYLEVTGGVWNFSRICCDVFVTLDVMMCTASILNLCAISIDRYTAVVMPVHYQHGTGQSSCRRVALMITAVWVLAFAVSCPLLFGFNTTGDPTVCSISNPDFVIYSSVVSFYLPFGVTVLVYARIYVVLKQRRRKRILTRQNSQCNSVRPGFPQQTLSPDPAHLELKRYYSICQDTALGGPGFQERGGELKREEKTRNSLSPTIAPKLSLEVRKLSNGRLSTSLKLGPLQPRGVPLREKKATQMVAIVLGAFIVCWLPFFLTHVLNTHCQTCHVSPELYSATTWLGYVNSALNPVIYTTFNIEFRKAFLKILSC
Sequence of D2 receptors (P14416 1-414 isoform P14416-2): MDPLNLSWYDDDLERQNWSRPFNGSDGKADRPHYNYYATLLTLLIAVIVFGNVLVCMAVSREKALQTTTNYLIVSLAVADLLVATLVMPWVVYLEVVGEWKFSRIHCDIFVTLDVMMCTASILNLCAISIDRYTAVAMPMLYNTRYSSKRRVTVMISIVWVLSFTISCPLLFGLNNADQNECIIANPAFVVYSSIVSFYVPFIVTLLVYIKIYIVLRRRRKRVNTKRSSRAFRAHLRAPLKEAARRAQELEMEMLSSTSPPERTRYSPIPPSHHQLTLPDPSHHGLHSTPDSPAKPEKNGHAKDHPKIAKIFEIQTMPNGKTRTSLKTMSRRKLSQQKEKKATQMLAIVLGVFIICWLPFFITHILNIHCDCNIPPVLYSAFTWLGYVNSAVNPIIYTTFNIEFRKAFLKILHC
T1 sequence (P08912 whole entry): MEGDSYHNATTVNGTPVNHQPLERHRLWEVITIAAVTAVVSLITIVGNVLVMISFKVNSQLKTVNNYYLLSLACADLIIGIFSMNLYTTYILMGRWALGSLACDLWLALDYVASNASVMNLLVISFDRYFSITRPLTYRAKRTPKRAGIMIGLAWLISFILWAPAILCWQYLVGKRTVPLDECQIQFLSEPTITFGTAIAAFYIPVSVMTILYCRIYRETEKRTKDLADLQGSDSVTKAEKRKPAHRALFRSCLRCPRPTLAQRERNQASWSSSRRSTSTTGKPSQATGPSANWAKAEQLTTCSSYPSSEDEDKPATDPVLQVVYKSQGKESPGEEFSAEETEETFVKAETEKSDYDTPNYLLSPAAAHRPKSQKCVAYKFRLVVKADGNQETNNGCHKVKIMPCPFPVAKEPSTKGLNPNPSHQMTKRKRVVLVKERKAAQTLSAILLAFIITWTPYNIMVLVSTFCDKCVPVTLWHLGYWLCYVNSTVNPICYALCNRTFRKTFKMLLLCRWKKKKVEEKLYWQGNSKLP

Structure (SMILES) | synthesis of dopamine in the striatum of the brain [1] | Ki (dopamine D2/D3 receptors) [nM] | Eff (%) (human M5 receptor) | EC50 (human D3 receptor; negative logarithm of EC50 in molar) [nM] | Eff (%) (human D3 receptor; percent response of reference Pergolide) | effect on dissociation rate of dopamine from D2 receptors (D2 receptors) | Eff (%) (human D5 receptor)
CCCN1CCC[C@H](c2cccc(S(C)(=O)=O)c2)C1 [(+)-OSU6162, (3R)-3-[3-(methylsulfonyl)phenyl]-1-propylpiperidine] | weak increase in the synthesis of dopamine in the striatum of the brain |  |  |  |  |  | 
CCCN1CCC[C@@H](c2cccc(S(C)(=O)=O)c2)C1 [(−)-OSU6162, (3S)-3-[3-(methylsulfonyl)phenyl]-1-propylpiperidine] |  | 447 | −5 | 3980 | 54 | did not significantly alter | 10
